From paper PMC4528135, “Kinetic Investigations of the Role of Factor Inhibiting Hypoxia-inducible Factor (FIH) as an Oxygen Sensor” (The Journal of Biological Chemistry, 2015) come the findings set out here.

Assay type in all cases: biochemical
Test [1] deals with T1, PHD2 (catalytic domain, residues 181–426) (Homo sapiens, UniProt Q9GZT9).
T1 construct: The catalytic domain of PHD2 (residues 181–426) was purified as described; made in house
Kind of test: Steady-state kinetics of PHD2-catalyzed HIF-α CODD/NODD hydroxylation (MALDI-TOF-MS). The settings on record: PHD2, 4 μM PHD2, 50 μM Fe(II), 4 mM L-ascorbate, 50 mM HEPES pH 7.5, 37 °C. Here is the method: (§1) Enzymatic assays were conducted as described ([46], [47]). Unless otherwise stated, the assay mixture typically contained 5 μM FIH, 500 μM substrate, 500 μM 2OG, 1 mM L-ascorbate, and 50 μM Fe(NH4)2(SO4)2 or 4 μM PHD2, 100 μM substrate, 300 μM 2OG, 4 mM L-ascorbate, and 50 μM Fe(NH4)2(SO4)2. For HIF-1α CODD19-mer, the background levels of methionine oxidation resulting from assay conditions were subtracted based on non-enzymatic controls ([48]).
The O2 dependence of FIH-catalyzed reactions was determined by conducting enzymatic assays in an “In vivo 500 Hypoxia Workstation” (Ruskinn) using buffers pre-equilibrated under different pO2 values for 24 h. The O2 dependence of PHD2-catalyzed reactions was determined by conducting enzymatic assays in sealed glass vials with variable N2/O2 contents ([42]). Reactions were stopped by spotting samples onto a matrix-assisted laser desorption/ionization-time of flight mass spectrometry (MALDI-TOF-MS) target plate and immediately mixing with α-cyano-4-hydroxycinnamic acid matrix. Hydroxylation levels were assessed by MALDI-TOF-MS as described ([46]).

Test [2] has as its target T2, PHD2 (Homo sapiens, UniProt Q9GZT9).
T2 construct: The catalytic domain of PHD2 (residues 181–426) was purified as described; made in house
Kind of test: Stopped-flow UV-visible spectroscopy, PHD2·Fe(II)·2OG·substrate + O2. The settings on record: anaerobic 0.8 mM PHD2, 1 mM peptide, 5 mM 2OG, 50 mM HEPES pH 7.5, mixed 1:1 with O2-saturated buffer at 5 °C, double exponential fit. The protocol: Stopped-flow UV-visible spectroscopy experiments were performed as described previously ([32], [42]). […] The reaction was observed over 1000 s using a photodiode array detector, and kinetic traces were analyzed using Origin version 8.51 software. Data were fitted with a double exponential function (y = A1 × exp(−kriset) + A2 × exp(−kfallt) + y0). The A1, A2, and y0 parameters were restricted with upper limits to match the observed amplitude/offset changes.
Previously reported pre-steady-state kinetic studies on PHD2 focused on its reaction with CODD HIF-1α 19-mer peptide ([38], [42]); there is no reported information on the rates of PHD2 reaction with O2 in the presence of NODD HIF-1α or HIF-2α substrates. To ascertain whether a slow reaction with O2 under pre-steady-state conditions is common to PHD2-catalyzed hydroxylation of both CODD and NODD, we investigated the reaction of PHD2 with NODD substrates in comparison with CODD for both HIF-1α and HIF-2α. Pre-steady-state reactions of PHD2 were initiated by rapid mixing of anaerobic PHD2·Fe(II)·2OG·HIF-α complexes with O2-saturated buffer at 5 °C. Reactions were initially observed using a photodiode array detector, and difference spectra (in comparison with the reaction with O2-free buffer) were subsequently analyzed.
FIGURE 5. Pre-steady-state kinetics of PHD2-catalyzed HIF-1/2α hydroxylation. […] B, stopped-flow kinetic traces at 520 nm showing absorbance changes in control experiments: Fe(II) only, mix of Fe(II) and 2OG, reaction of PHD2·Fe(II)·2OG complex with O2 in the absence of CODD; reaction of PHD2·Fe(II)·N-oxalylglycine (NOG)·CODD complex with O2. N-Oxalylglycine is an inhibitor of 2OG oxygenases. […] The kinetic traces represent the average of triplicate assays. E, HIF-1/2α peptide hydroxylation, as determined by MALDI-TOF-MS. Reactions were quenched with 1% CF3CO2H at defined time points.

In test [3] the target is T2, PHD2. Briefly: Rapid quench-flow, PHD2 pre-steady-state product and succinate formation. The following applies: same mixture as stopped-flow, O2-saturated buffer 1:1, 5 °C, quenched with 1% CF3CO2H. Here is the method:
Rapid quench-flow experiments were performed using the same conditions and preparation of the assay mixture as used in stopped-flow experiments. Rapid quench-flow equipment (TgK Scientific Ltd.) in an anaerobic glove box was used for the experiments. Samples were quenched with 1% CF3CO2H and analyzed using MALDI-TOF-MS (peptide hydroxylation) as described above or liquid chromatography-mass spectrometry (LC-MS, for succinate production). For LC-MS, chromatographic separation was performed at 50 °C using a Waters ACQUITY BEH Amide 1.7-μm, 2.1 × 100-mm column on a Waters ACQUITY^TM ultraperformance liquid chromatography system (Waters Corp., Milford, MA). The following eluents were used: mobile phase A: 10% H2O, 90% acetonitrile (v/v), 10 mM ammonium formate; mobile phase B: 50% H2O, 50% acetonitrile (v/v), 10 mM ammonium formate. The elution gradient was 0–7.0 min linear from 10 to 30% B, and 7.0–9.0 min at 10% B for re-equilibration of the column. A constant flow rate of 0.4 ml/min was used. Analytes were detected in negative ionization mode using single reaction monitoring on a Quattro triple quadrupole mass spectrometer (Waters) with a cone voltage of 15 V and a capillary voltage of 3.0 kV. The desolvation temperature was set to 250 °C, and the source temperature was set to 120 °C.
To investigate correlation of the spectroscopic observations with rates of product accumulation, equivalent reactions were analyzed by rapid quench-flow methodology. Anerobically prepared PHD2·Fe(II)·2OG·peptide substrate complexes were mixed with O2-saturated buffer in a 1:1 ratio; reactions were quenched at defined time points with 1% aqueous CF3CO2H. The level of peptide hydroxylation was assessed by MALDI-TOF-MS ([42]), and succinate accumulation was analyzed by LC-MS. To obtain rate constants for product accumulation, the results were fitted with a single exponential function (Fig. 5E and Table 3).

For test [4], the target named is T2, PHD2. Briefly: Time course of PHD2-catalyzed peptide hydroxylation. The following applies: 4 μM PHD2, 100 μM peptide, 50 μM Fe(II), 300 μM 2OG, 1 mM L-ascorbate, 50 mM HEPES pH 7.5, 37 °C, atmospheric O2; MALDI-TOF-MS; triplicate assays. The protocol:
as §1
FIGURE 3. PHD2- and FIH-catalyzed hydroxylation of HIF-1/2α peptide substrates. A, time course of HIF-1/2α CODD19-mer peptide hydroxylation; B, time course of HIF-1/2α NODD19-mer peptide hydroxylation. Conditions were as follows: 4 μM PHD2, 100 μM peptide, 50 μM Fe(II), 300 μM 2OG, 1 mM L-ascorbate in HEPES 50 mM (pH 7.5) were incubated at 37 °C at atmospheric O2. C, time course of HIF-1α CAD 19- and 35-mer peptide hydroxylation. D, time course of HIF-2α CAD 19- and 35-mer peptide hydroxylation. Conditions were as follows: 5 μM FIH, 500 μM peptide, 50 μM Fe(II), 500 μM 2OG, 1 mM L-ascorbate in HEPES 50 mM (pH 7.5) were incubated at 37 °C at atmospheric O2. The different hydroxylation levels were analyzed by MALDI-TOF-MS. Error bars, S.D. of triplicate assays.

T2 sequence (Q9GZT9 181-426): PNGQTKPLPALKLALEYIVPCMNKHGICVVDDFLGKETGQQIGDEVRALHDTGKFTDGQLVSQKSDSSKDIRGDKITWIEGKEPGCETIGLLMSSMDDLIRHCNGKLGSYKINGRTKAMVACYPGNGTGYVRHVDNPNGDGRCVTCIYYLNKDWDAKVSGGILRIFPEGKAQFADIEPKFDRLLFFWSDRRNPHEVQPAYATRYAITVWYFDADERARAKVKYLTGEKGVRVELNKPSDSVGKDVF
T1 sequence (Q9GZT9 181-426): as above

In the case of “DLDLEMLAPYIPMDDDFQL [HIF-1α CODD, 19-mer fragment (556–574) of the HIF-1α C-terminal oxygen-dependent degradation domain, PHD2 substrate]”, the “kcat^app” value in test [1] stood at 0.060 ± 0.006 s⁻¹. Also, the “Stopped-flow, 520 nm (PHD2) krise phase” value on PHD2 [2] stood at 0.015 ± 0.005 s⁻¹. Further, the “Stopped-flow, 520 nm (PHD2) kfall phase” value at PHD2 [2] (traces average of triplicate) came to 0.040 ± 0.007 s⁻¹. Besides, the Rapid quench-flow kproduct at PHD2 [3] (peptide hydroxylation by MALDI-TOF-MS, single exponential fit) worked out at 0.0155 ± 0.0012 s⁻¹. Also, the Rapid quench-flow ksuccinate at PHD2 [3] (succinate by LC-MS) stood at 0.0130 ± 0.0020 s⁻¹. For the same sequence, the “substrate hydroxylation after 15 min” value at PHD2 [4] is 70%.
